Laboratory results reported in article PMC9606921, “Phytochemical Investigation and Biological Studies on Selected Searsia Species” (Plants, 2022).
Several values for one entry are separate records, joined by “and”; a condition that tells them apart may be missing. Equal entries are not always repeated.

Legend:
[1] = Ferric ion reducing antioxidant power (FRAP) assay; details: means ± SDs; ascorbic acid equivalents; read at 593 nm
Procedure: The FRAP values were generated by comparing the absorbance changes in the test mixtures with those obtained from increasing concentrations of Fe^3+ and were expressed as µM AAE/g of the samples (Figure 3).
Preparation of the FRAP reagent in a 50 mL conical flask was composed of 30 mL Acetate buffer (300 mM, pH 3.6; 1.627 g Sodium acetate + 16 mL Glacial acetic acid and made up to 1 L with distilled water) + 3 mL TPTZ 10 mM solution (0.0093 g TPTZ and 3 mL of 40 mM HCl in 15 mL flask) + 3 mL FeCl3 solution (0.054 g FeCl3.6H2O and 10 mL distilled water) and 6.6 mL of distilled water. A control solution was prepared by dissolving 0.00352 g of Ascorbic acid in 50 mL, diluted to the mark with distilled water. A standard curve was prepared as per the method described by Benzie and Strain, 1996. L-Ascorbic acid (Sigma Aldrich, Cape Town, South Africa) was used as a standard, with concentrations varying between 0 and 1000 µM. Dilutions were made for the extracts that were highly concentrated, and dilution factors were noted and considered in calculations for the relevant extracts. In a 96-well clear microplate, 10 µL of the stock solutions of the extracts (hexane, dichloromethane, ethyl acetate, methanol, and butanol) of three plants were mixed with a 300 µL FRAP reagent. The plate was read at a wavelength of 593 nm in a multiplate reader. […]

[2] = biological target: T1, α-glucosidase (Saccharomyces cerevisiae) (Saccharomyces cerevisiae, UniProt P53341); assay: Alpha glucosidase inhibitory activity; assay type: biochemical; details: for IC50: IC50 on alpha glucosidase, concentrations 125.0-1.95 µg/mL, means ± SDs; for activity in screening against alpha glucosidase: isolated compounds tested at 125.0 µg/mL
T1 construct: purchased Sigma-Aldrich, South Africa
T1 sequence (P53341 whole entry): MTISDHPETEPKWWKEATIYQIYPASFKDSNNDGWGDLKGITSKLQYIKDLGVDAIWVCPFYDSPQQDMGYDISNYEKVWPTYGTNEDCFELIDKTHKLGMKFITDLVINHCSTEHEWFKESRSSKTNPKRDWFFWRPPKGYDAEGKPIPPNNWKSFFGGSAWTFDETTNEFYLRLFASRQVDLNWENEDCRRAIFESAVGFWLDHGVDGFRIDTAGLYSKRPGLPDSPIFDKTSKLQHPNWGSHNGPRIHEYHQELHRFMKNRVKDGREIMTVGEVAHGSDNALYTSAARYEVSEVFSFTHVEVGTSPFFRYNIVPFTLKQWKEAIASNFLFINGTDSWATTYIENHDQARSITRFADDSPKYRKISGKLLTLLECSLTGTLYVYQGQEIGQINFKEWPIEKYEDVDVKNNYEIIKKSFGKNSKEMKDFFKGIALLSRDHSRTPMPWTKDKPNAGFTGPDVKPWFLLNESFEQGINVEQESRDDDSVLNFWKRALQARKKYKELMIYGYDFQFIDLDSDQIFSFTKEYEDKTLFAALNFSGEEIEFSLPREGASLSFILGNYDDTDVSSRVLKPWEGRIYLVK
Procedure: (§1) The extracts of Searsia species were screened to determine their inhibition activities with respect to enzymes relevant to the management of diabetes. The extracts were tested at 2.0 mg/mL.
(§2) The isolated compounds from the three plants were tested against alpha glucosidase and alpha amylase at 125.0 µg/mL to determine their inhibitory activities.
(§3) Standards (purity > 99.0%) for antioxidants, Trolox (6-hydroxyl-2,5,7,8-tetramethylchroman-2-carboxylic acid; Saarchem, Mumbai, India), and other reagents, including ABTS (2,2′-azino-bis (3-ethylbenzo thiazoline-6-sulfonic acid) diammonium salt (Sigma), potassium-peroxodisulphate (Merck), Ethanol (Saarchem), fluorescein sodium salt (Sigma), AAPH (2,2′-azobis (2-methylpropionamidine) dihydrochloride (Aldrich), Sodium dihydrogen orthophosphate dihydrate ([…], Merck), PCA (perchloric acid, Saarchem), TPTZ (2,4,6-tri[2-pyridyl]-s-triazine), iron (III) chloride hexahydrate, and copper sulphate, were purchased from Sigma-Aldrich, Inc. (St. Louis, MO, USA). L-Ascorbic acid was procured from Sigma Aldrich, Cape Town, South Africa. Antioxidant assays, including FRAP and TEAC assays, were performed using a Multiskan spectrum plate reader, while an automated ORAC assay was performed with a Floroskan spectrum plate reader. For the enzyme inhibition studies, α-glucosidase (Saccharomyces cerevisiae), α-amylase ([…]) and 3, 5, di-nitro salicylic acid (DNS), p-nitro-phenyl-α-D-glucopyranoside (p-NPG), sodium carbonate (Na2CO3), soluble starch, sodium dihydrogen phosphate, and disodium hydrogen phosphate were purchased from Sigma-Aldrich, South Africa.
The alpha glucosidase inhibitory activities of the extracts were determined according to the standard method, with minor modifications. In a 96-well plate, a reaction mixture containing 50 μL phosphate buffer (100 mM, pH = 6.8), 10 μL alpha glucosidase (1 U/mL), and 20 μL of extract at 2.0 mg/mL was pre-incubated at 37 °C for 15 min. Then, 20 μL P-NPG (5 mM) was added as a substrate and incubated further at 37 °C for 20 min. The reaction was stopped by adding 50 μL Na2CO3 (0.1 M). The absorbance of the released p-nitrophenol was measured at 405 nm using a Multiplate Reader. The results were reported as half-maximal inhibitory (IC50) concentrations in μM. […] Each extract was tested in triplicate. (1) Inhibitory activity (%)=1 − As/Ac×100 where As is the absorbance in the presence of the test substance and Ac is the absorbance of the control.

[3] = biological target: T2, α-amylase (procaine pancreas) (Sus scrofa, UniProt P00690); assay: Alpha amylase inhibitory assay; assay type: biochemical; details: for IC50: concentrations 125.0-1.95 µg/mL, means ± SDs; for activity in screening against alpha amylase: isolated compounds tested at 125.0 µg/mL
T2 construct: purchased Sigma-Aldrich, South Africa; host or cells: pancreas
T2 sequence (P00690 16-511): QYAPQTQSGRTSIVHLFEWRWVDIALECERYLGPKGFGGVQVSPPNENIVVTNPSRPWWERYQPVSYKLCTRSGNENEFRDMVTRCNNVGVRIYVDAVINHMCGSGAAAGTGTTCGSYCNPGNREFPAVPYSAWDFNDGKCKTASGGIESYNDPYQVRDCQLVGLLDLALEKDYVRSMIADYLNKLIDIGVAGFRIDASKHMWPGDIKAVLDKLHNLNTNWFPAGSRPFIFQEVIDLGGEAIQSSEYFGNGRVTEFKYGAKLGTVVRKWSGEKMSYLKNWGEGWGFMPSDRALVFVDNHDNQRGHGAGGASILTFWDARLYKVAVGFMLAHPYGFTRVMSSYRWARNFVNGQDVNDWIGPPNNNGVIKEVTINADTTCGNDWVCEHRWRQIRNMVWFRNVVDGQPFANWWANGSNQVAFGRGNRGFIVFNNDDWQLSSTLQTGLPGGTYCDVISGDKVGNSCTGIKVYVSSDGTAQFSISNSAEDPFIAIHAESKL
Procedure: as §1, §2, §3
The alpha amylase inhibitory assays of the extracts were carried out according to the standard method, with minor modifications. In a 96-well plate, the reaction mixture, containing 50 μL phosphate buffer (100 mM, pH = 6.8), 10 μL alpha amylase (2 U/mL), and 20 μL of plant extracts at 2.0 mg/mL, was preincubated at 37°C for 20 min. Then, 20 μL of 1% soluble starch (100 mM phosphate buffer pH 6.8) was added as a substrate and incubated further at 37 °C for 30 min; 100 μL of the DNS colour reagent was then added and boiled for 10 min. The absorbance of the resulting mixture was measured at 540 nm using a multiplate reader. […] The extracts or isolated compounds were measured in triplicate. The results were reported as half-maximal inhibitory (IC50) concentrations in μM. The results for both alpha amylase and alpha glucosidase were calculated using equation 1.

[4] = Oxygen radical absorbance capacity (ORAC) assay; details: means ± SDs; Trolox equivalents per g of plant extract
Procedure: ORAC was determined according to a previously described method [46], with some modifications [47]. Fluorescein was used as the fluorescent probe. The loss of fluorescence of fluorescein was an indication of the extent of oxidation through reaction with peroxyl or hydroxyl radicals. The protective effect of an antioxidant was measured by assessing the fluorescence area under the curve plot relative to that of a blank in which no antioxidant was present. The ORAC value was calculated by dividing the area under the sample curve by the area under the Trolox curve, with both areas being corrected by subtracting the area under the blank curve.

[5] = Trolox equivalent antioxidant capacity (ABTS/TEAC) assay; details: means ± SDs; ABTS, 734 nm, 30 min
Procedure: The antioxidant power of the extracts was examined using the ABTS radical decolorization assay, which measures the relative antioxidant ability to scavenge the radical ABTS^+ (2.2′-azinobis (3-ethylbenzothiazoline-6-sulfonic acid)), a blue-green chromophore with maximum absorption at 734 nm that decreases in its intensity in the presence of antioxidants.
The ABTS mix solution was diluted with ethanol to read a start-up absorbance of approximately 2.0 (±0.1). The test extracts were prepared by dissolving 1 mg of an extract in 1 mL of methanol, allowed to react with 300 µL ABTS solution in the dark at room temperature for 30 min. The absorbance was measured at 734 nm at 25 °C in a multiplate reader. The results were expressed as µM Trolox equivalents per milligram dry weight (µM TE/g) of the test samples.

SMILES: O=C1O[C@H]([C@@H](O)CO)C(O)=C1O [Ascorbic acid, L-Ascorbic acid]
- FRAP [1]: 390.12 ± 09.12 µM AAE/g

SMILES: CC1(C)C=C2[C@H]3CC[C@@H]4[C@@]5(C)CCC(=O)C(C)(C)[C@@H]5CC[C@@]4(C)[C@]3(C)CC[C@@]2(C(=O)O)CC1 [Compound C1, moronic acid]
- IC50 [2]: 23.4 µM and 23.2 µM
- activity in screening against alpha glucosidase [2]: showed activity
- IC50 [3]: 44.2 µM
- activity in screening against alpha amylase [3]: showed activity

SMILES: O=c1cc(-c2ccc(O)c(-c3c(O)cc(O)c4c(=O)cc(-c5ccc(O)cc5)oc34)c2)oc2cc(O)cc(O)c12 [Compound C7, amentoflavone]
- IC50 [2]: 10.3 µM
- activity in screening against alpha glucosidase [2]: showed activity
- IC50 [3]: 36.8 µM
- activity in screening against alpha amylase [3]: showed activity

SMILES: Cc1c(C)c2c(c(C)c1O)CCC(C)(C(=O)O)O2 (centres unmarked) [Trolox, 6-hydroxyl-2,5,7,8-tetramethylchroman-2-carboxylic acid]
- ORAC [4]: 14.2 ± 04.01 µM TE/g
- TEAC [5]: 205.01 ± 05.03 µM TE/g
